Experimental data taken from patent publication US20250230193A1, “CYCLIC COMPOUND HAVING SELECTIVE KRAS INHIBITORY EFFECT ON HRAS AND NRAS” (CHUGAI SEIYAKU KABUSHIKI KAISHA, priority 2022, published 2025).
*1 amine or outer side, *2 acyl side, *3 side chain or, on linkers, in order; H or OH if unused. Where a SMILES comes first, the peptide text is derived from it. Bridges are numbered along the chain shown (N, C = ends). [ ]: non-standard residue; d: D form. hPhe(3,5-F2-4-CF3) = N[C@@H](CCc1cc(F)c(C(F)(F)F)c(F)c1)C(=O)O; hPhe(3-Cl-4-CF3) = N[C@@H](CCc1ccc(C(F)(F)F)c(Cl)c1)C(=O)O; X8 = CCCN([C@@H](Cc1ccc(OCC=[*:3])cc1)C(=O)[*:2])[*:1]; X4 = CCCN([C@@H](COCCC(C)C)C(=O)[*:2])[*:1]; X7 = CN([C@@H](CCC=[*:3])C(=O)[*:2])[*:1]; NMeGly(cPent) = CN[C@H](C(=O)O)C1CCCC1; Hyp = O=C(O)[C@@H]1C[C@@H](O)CN1; NMeD = CN[C@@H](CC(=O)O)C(=O)O; NMeL = CN[C@@H](CC(C)C)C(=O)O; NMeA = CN[C@@H](C)C(=O)O; Ac5c = NC1(C(=O)O)CCCC1; Aze = O=C(O)[C@@H]1CCN1; Ac4c = NC1(C(=O)O)CCC1; Sar = CNCC(=O)O

Legend:
[1] = molecular target: GDP-bound KRAS wild-type protein (Homo sapiens, UniProt P01116); test: Binding to KRAS by surface plasmon resonance (SPR), Single Cycle Kinetics
[2] = molecular target: GDP-bound NRAS wild-type protein (Homo sapiens, UniProt P01111); test: Binding to NRAS by surface plasmon resonance (SPR), Single Cycle Kinetics
GDP-bound NRAS wild-type protein, sequence (P01111 whole entry): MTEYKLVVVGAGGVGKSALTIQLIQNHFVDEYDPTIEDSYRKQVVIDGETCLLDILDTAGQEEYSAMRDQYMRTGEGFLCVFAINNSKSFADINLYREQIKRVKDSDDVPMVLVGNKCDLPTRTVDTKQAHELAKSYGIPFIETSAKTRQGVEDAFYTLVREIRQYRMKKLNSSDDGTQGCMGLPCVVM

[3] = molecular target: GDP-bound HRAS wild-type protein (Homo sapiens, UniProt P01112); test: Binding to HRAS by surface plasmon resonance (SPR), Single Cycle Kinetics
GDP-bound HRAS wild-type protein, sequence (P01112 whole entry): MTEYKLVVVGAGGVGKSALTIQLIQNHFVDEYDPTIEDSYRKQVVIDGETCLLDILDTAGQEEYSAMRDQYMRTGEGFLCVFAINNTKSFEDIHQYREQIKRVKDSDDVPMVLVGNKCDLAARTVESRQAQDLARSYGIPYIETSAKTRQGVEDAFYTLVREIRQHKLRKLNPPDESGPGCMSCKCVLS

[4] = system: human lung cancer strain NCI-H441
[5] = SPR Single Cycle Kinetics, GDP-bound KRAS wild-type protein, 1:1 binding model
[6] = SPR, Single Cycle Kinetics; GDP-bound KRAS wild-type protein
[7] = KD ratio, GDP-bound NRAS wild-type vs GDP-bound KRAS wild-type, SPR
[8] = KD ratio, GDP-bound HRAS wild-type vs GDP-bound KRAS wild-type, SPR
[9] = SPR, GDP-bound wild-type proteins

Structure (SMILES)	Kd [1, 6] [nM]	NRAS/KRAS (ratio of KD value with respect to NRAS to KD value with respect to KRAS) [2, 7]	HRAS/KRAS (ratio of KD value with respect to HRAS to KD value with respect to KRAS) [3, 8]	also measured
CC[C@H](C)[C@@H]1NC(=O)[C@H](CC(C)C)N(C)C(=O)CSC[C@@H](C(=O)N(C)C)N(C)C(=O)[C@H](C2CCCC2)N(C)C(=O)C2(CCCC2)NC(=O)[C@@H]2CCCN2C(=O)[C@H](CCc2cc(F)c(C(F)(F)F)c(F)c2)NC(=O)CN(C)C(=O)[C@H](Cc2ccc(C(F)(F)F)cc2)N2CC/C=C\C[C@@H](C2=O)N(C)C(=O)CN(C)C1=O (stereo in doubt) [PP3109]				Kd [1, 5]: 3000 nM
CCO[C@@H]1C[C@H]2C(=O)NC3(CCC3)C(=O)N(C)[C@@H](C3CCCC3)C(=O)N(C)[C@H](C(=O)N3CCOCC3)CC(=O)N(C)[C@@H](Cc3ccccc3)C(=O)N[C@@H]([C@@H](C)CC)C(=O)N(C)CC(=O)N(C)[C@H]3CCCCCN(C3=O)[C@@H](Cc3ccc(F)cc3)C(=O)N(C)CC(=O)N[C@@H](CCc3cc(F)c(C(F)(F)F)c(F)c3)C(=O)N2C1 [PP1181]	0.19	B (a compound having 3 or more and less than 10 is denoted as B)	B (a compound having 3 or more and less than 10 is denoted as B)	
CCCN1C(=O)[C@@H]2CCN2C(=O)[C@H](C)N(C)C(=O)[C@H]([C@@H](C)CC)NC(=O)[C@H](CC(C)C)N(C)C(=O)C[C@@H](C(=O)N(C)C)N(C)C(=O)[C@H](C2CCCC2)N(C)C(=O)C2(CCC2)NC(=O)[C@@H]2CCCN2C(=O)[C@H](CCc2ccc(C(F)(F)F)c(Cl)c2)NC(=O)CN(C)C(=O)[C@@H]1COCCC(C)C [PP1820, (3S,9S,12S,17S,20S,23S,27S,30S,36S)-3-[2-[3-chloro-4-(trifluoromethyl)phenyl]ethyl]30-cyclopentyl-23-isobutyl-9-(isopentyloxymethyl)-N,N,7,17,18,24,28,31-octamethyl-20-[(1S)-1-methylpropyl]-2,5,8,11,16,19,22,25,29,32,35-undecaoxo-10-propyl-spiro[1,4,7,10,15,18,21,24,28,31,34-undecazatricyclo[34.3.0.012,15]nonatriacontane-33,1′-cyclobutane]-27-carboxamide] ([NMeL]I[NMeA][Aze][X4][Sar][hPhe(3-Cl-4-CF3)]P[Ac4c][NMeGly(cPent)][NMeD]-NMe2; lactam N-11)				Kd [1, 5]: 0.6 nM; NRAS/KRAS (ratio of KD value for NRAS to KD value for KRAS) [2, 7]: C (A compound having a KD ratio of 0.1 or more and less than 3 is denoted as C); HRAS/KRAS (ratio of KD value for HRAS to KD value for KRAS) [3, 8]: C (A compound having a KD ratio of 0.1 or more and less than 3 is denoted as C)
CCC[C@H]1C(=O)N[C@@H]([C@@H](C)CC)C(=O)N(C)CC(=O)N(C)[C@H]2C/C=C\CCN(C2=O)[C@@H](Cc2ccc(C(F)(F)F)cc2)C(=O)N(C)CC(=O)N[C@@H](CCc2cc(F)c(C(F)(F)F)c(F)c2)C(=O)N2C[C@H](OCC)C[C@H]2C(=O)NC2(CC(C)(C)C2)C(=O)N(C)[C@@H](CC(C)(C)C)C(=O)N(C)C(C(=O)N(C)C)CC(=O)N1C (stereo partly shown) [PP2730]				Kd ([1]; GDP-bound KRAS wild-type protein, SPR Single Cycle Kinetics, 1:1 binding model): 0.065 nM; NRAS/KRAS (ratio of KD value with respect to GDP-bound NRAS wild-type protein to KD value with respect to KRAS) ([2]; class symbols): A (a compound having 10 or more and less than 20 is denoted as A); HRAS/KRAS (ratio of KD value with respect to GDP-bound HRAS wild-type protein to KD value with respect to KRAS) ([3]; class symbols): A (a compound having 10 or more and less than 20 is denoted as A)
CCC[C@H]1C(=O)N[C@@H]([C@@H](C)CC)C(=O)N(C2CC2)CC(=O)N(C)[C@H]2C/C=C\CCN(C2=O)[C@@H](Cc2ccc(C)cc2)C(=O)N(C)CC(=O)N[C@@H](CCc2ccc(C(F)(F)F)c(OC)c2)C(=O)N2C[C@H](OCC)C[C@H]2C(=O)N(C)C2(CCC2)C(=O)N(C)[C@@H](C2CCCC2)C(=O)N(C)[C@H](C(=O)N2CCCCC2)CC(=O)N1C [PP3096, (2S,8S,12R,14S,20S,23S,27S,30S,36S,38Z)-20-cyclopentyl-32-cyclopropyl-12-ethoxy-8-[2-[3-methoxy-4-(trifluoromethyl)phenyl]ethyl]-4,16,19,22,26,35-hexamethyl-30-[(1S)-1-methylpropyl]-23-(piperidine-1-carbonyl)-27-propyl-2-(p-tolylmethyl)spiro[1,4,7,10,16,19,22,26,29,32,35-undecazatricyclo[34.5.1.0^10,14]dotetracont-38-ene-17,1′-cyclobutane]-3,6,9,15,18,21,25,28,31,34,42-undecone]				IC50 [4]: 35.8 nM; NRAS/KRAS (ratio of KD value with respect to GDP-bound NRAS wild-type protein to KD value with respect to KRAS) [2, 9]: A (a compound having 10 or more and less than 20 is denoted as A); HRAS/KRAS (ratio of KD value with respect to GDP-bound HRAS wild-type protein to KD value with respect to KRAS) [3, 9]: A (a compound having 10 or more and less than 20 is denoted as A)

The next lines start with results.

Kd [1, 6] [nM]	Structure (SMILES)	NRAS/KRAS (ratio of KD value with respect to NRAS to KD value with respect to KRAS) [2, 7]	HRAS/KRAS (ratio of KD value with respect to HRAS to KD value with respect to KRAS) [3, 8]	also measured
0.0088	CCCN1C(=O)CN(C)C(=O)CN(C)C(=O)[C@H]([C@@H](C)CC)NC(=O)[C@@H]2CCCCOc3ccc(cc3)C[C@H]1C(=O)N(C)CC(=O)N[C@@H](CCc1cc(F)c(C(F)(F)F)c(F)c1)C(=O)N1C[C@H](OCC)C[C@H]1C(=O)NC1(CCCC1)C(=O)N(C)[C@@H](C1CCCC1)C(=O)N(C)[C@H](C(=O)N(C)C)CC(=O)N2C [PP0894]	C (A compound having a KD ratio of 0.1 or more and less than 3 is denoted as C)	C (A compound having a KD ratio of 0.1 or more and less than 3 is denoted as C)	
0.012	CCCN1C(=O)CN(C)C(=O)CN(C)C(=O)[C@H]([C@@H](C)CC)NC(=O)[C@@H]2CCC=CCOc3ccc(cc3)C[C@H]1C(=O)N(C)CC(=O)N[C@@H](CCc1cc(F)c(C(F)(F)F)c(F)c1)C(=O)N1C[C@H](OCC)C[C@H]1C(=O)NC1(CCCC1)C(=O)N(C)[C@@H](C1CCCC1)C(=O)N(C)[C@H](C(=O)N(C)C)CC(=O)N2C [PP0900] ([X7]I[Sar][Sar][X8][Sar][hPhe(3,5-F2-4-CF3)][Hyp](Et)[Ac5c][NMeGly(cPent)][NMeD]-NMe2; staple 1-5; lactam N-11)	C (A compound having a KD ratio of 0.1 or more and less than 3 is denoted as C)	C (A compound having a KD ratio of 0.1 or more and less than 3 is denoted as C)	
1.1	CCCN1C(=O)CN(C)C(=O)CN(C)C(=O)[C@H]([C@@H](C)CC)NC(=O)[C@@H]2CCCCCCC[C@@H](NC(=O)[C@@H]3C[C@@H](OCC)CN3C(=O)[C@H](CCc3cc(F)c(C(F)(F)F)c(F)c3)NC(=O)CN(C)C(=O)[C@@H]1Cc1ccc(C(F)(F)F)cc1)C(=O)N(C)[C@@H](C1CCCC1)C(=O)N(C)[C@H](C(=O)N(C)C)CC(=O)N2C [PP0925]	A (a compound having 10 or more and less than 20 is denoted as A)	B (a compound having 3 or more and less than 10 is denoted as B)	
